# Reference: patent US20260317327A1, “CRYSTRAL OF QUINOLINE-SUBSTITUTED COMPOUND” (TAIHO PHARMACEUTICAL CO., LTD., priority 2023, published 2026)
# Legend:
# [1] = Solid stability test (closed system, storage at 60 °C or 80 °C, HPLC purity, crystal form, appearance); format: physicochemical; conditions: for Change amount (purity) 2 weeks after / Purity 2 weeks after / Color tone change 2 weeks after / Change amount (purity) 4 weeks after / Purity 4 weeks after / Color tone change 4 weeks after: closed system; for Color tone change 2 weeks after / Color tone change 4 weeks after: visual; for Purity at the beginning: HPLC 220 nm
# Experimental: A temperature influence was tested by using the type I crystal, solvate crystal type “b”, and amorphous solid of the compound (1) obtained in Example 1, Comparative Example 1, and Reference Example 1, respectively. An evaluation was performed by the following procedure. In addition, with regard to the appearances of the crystals and the amorphous solid, the states thereof before and after their storage were visually observed. • Storage condition: 60° C. or 80° C. (closed system) (HIFLEX (high-temperature storage machine manufactured by ETAC Engineering Co., Ltd.)) • Storage period: 2 weeks and 4 weeks • Storage amount: about 100 mg • Storage container: a glass bottle
# A change in amount of related substances (amount of substances detected in addition to the compound (1)) was analyzed by HPLC in accordance with the following method. A product obtained as follows was used as a sample for analysis: about 1 mg of each sample was weighed as the compound (1); the sample was dissolved in 10 mL of a mixed liquid of acetonitrile and water (3:1 v/v); and 5 μL of the liquid was accurately weighed out.
# The amount of the related substances in the sample solution was measured by HPLC analysis. The handling of each apparatus including data processing followed a method and a procedure instructed in the apparatus. • Column: InertSustain C18HP (4.6 mm×150 mm, 3 μm) manufactured by GL Sciences Inc. • UV detection: 220 nm • Column temperature: 40° C. • Flow rate: 1.0 mL/min • Sample cooler: 5° C. • Sample concentration: 0.1 mg/mL • Mobile phase A: 0.1% phosphoric acid • Mobile phase B: acetonitrile
# [2] = Dynamic vapor sorption (DVS) test; format: physicochemical
# Experimental: A vapor sorption test was performed by using each of the type I crystal, solvate crystal type “b”, and amorphous solid of the compound (1) obtained in Example 1, Comparative Example 1, and Reference Example 1, respectively. The vapor sorption test was performed in accordance with the following conditions. About 10 mg of a sample was loaded into a dedicated holder made of quartz, and the weights of the sample at respective humidities were continuously measured and recorded under the following conditions.
# [3] = Comparison of type I crystal with metastable crystal and hydrate crystal (hygroscopicity, storage stability; data not shown); format: physicochemical; conditions: compared to metastable crystal and hydrate crystal
# Source text: In addition to Comparative Example 1, a metastable crystal and a hydrate crystal of the compound (1) were obtained and compared with the type I crystal obtained according to the method described in Example 1.
# EGFR = conditions: as disclosed in Patent Document 1 (WO 2015/025936 A1); cited from earlier work
SMILES,Change amount (purity) 2 weeks after ([1]; 60 °C),Purity 2 weeks after ([1]; 60 °C),Color tone change 2 weeks after ([1]; 60 °C),Change amount (purity) 4 weeks after ([1]; 60 °C),Purity 4 weeks after ([1]; 60 °C),Color tone change 4 weeks after ([1]; 60 °C),Change amount (purity) 2 weeks after ([1]; 80 °C),Purity 2 weeks after ([1]; 80 °C),Color tone change 2 weeks after ([1]; 80 °C),Change amount (purity) 4 weeks after ([1]; 80 °C),Purity 4 weeks after ([1]; 80 °C),Color tone change 4 weeks after ([1]; 80 °C),Purity at the beginning ([1]; storage at 60 °C series),Purity at the beginning ([1]; storage at 80 °C series),"Weight increase ([2]; 95% RH, 25 °C)",other results
"C=CC(=O)N[C@H]1C=C(C)c2c(-c3cnc4ccccc4c3)c3c(N)ncnc3n2C1 [Type I crystal, (S)—N-(4-amino-6-methyl-5-(quinolin-3-yl)-8,9-dihydropyrimido[5,4-b]indolizin-8-yl)acrylamide]",0.06%,98.90%,Absent,0.02%,98.86%,Absent,0.05%,98.89%,Absent,0.07%,98.91%,Absent,98.84%,98.84%,1.28%,"Chemical purity on storage (in words) ([1]; 60 °C / 80 °C, 2 and 4 weeks): substantially remained unchanged; Overall stability of crystal (in words) ([1]; 60 °C / 80 °C, 2 and 4 weeks): extremely stable crystal; Amount of related substances on storage (in words) ([1]; 60 °C / 80 °C, 2 and 4 weeks, HPLC): substantially no increase in amount of related substances; Crystal form and color tone on storage (in words) ([1]; 60 °C / 80 °C, 2 and 4 weeks, compared to solvate crystal type “b” and amorphous solid): showed no changes; Hygroscopicity (in words) ([2]; compared to the solvate crystal type “b” and amorphous solid): less hygroscopic; Weight increase ([2]; up to 75% RH, 25 °C): less than 0.4%; Hygroscopicity, storage stability, etc. (in words) [3]: better properties in terms of hygroscopicity, storage stability, etc."
"C=CC(=O)N[C@H]1C=C(C)c2c(-c3cnc4ccccc4c3)c3c(N)ncnc3n2C1 [compound (1), (S)—N-(4-amino-6-methyl-5-(quinolin-3-yl)-8,9-dihydropyrimido[5,4-b]indolizin-8-yl)acrylamide]",–,–,–,–,–,–,–,–,–,–,–,–,–,–,–,EGFR-inhibiting action (in words) (EGFR): excellent EGFR-inhibiting action
"C=CC(=O)N[C@H]1C=C(C)c2c(-c3cnc4ccccc4c3)c3c(N)ncnc3n2C1 [Solvate crystal type “b”, (S)—N-(4-amino-6-methyl-5-(quinolin-3-yl)-8,9-dihydropyrimido[5,4-b]indolizin-8-yl)acrylamide]",−10.60%,88.16%,Absent,−11.55%,87.21%,Absent,−14.49%,84.57%,Absent,−15.38%,83.38%,Absent,98.76%,98.76%,≥ 5%,"Weight increase profile (in words) ([2]; 5-95% RH, 25 °C): substantially linear weight increase starting from a low-humidity region"
"C=CC(=O)N[C@H]1C=C(C)c2c(-c3cnc4ccccc4c3)c3c(N)ncnc3n2C1 [Amorphous solid, (S)—N-(4-amino-6-methyl-5-(quinolin-3-yl)-8,9-dihydropyrimido[5,4-b]indolizin-8-yl)acrylamide]",−0.66%,98.09%,Absent,−0.85%,97.90%,Absent,−6.38%,92.37%,Coloring,−7.90%,90.85%,Coloring,98.75%,98.75%,about 10%,"Weight increase ([2]; 50% RH, 25 °C): ≥ 2%"
